# Experimental data published in PubChem BioAssay (NCI).
#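 Grown in 96-well plates, cells were treated for 48 hours with each compound at five concentrations. Insufficient inhibition: endpoint recorded as highest concentration tested. TGI is the concentration that stops growth completely.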
# How the values were obtained:
# Experiment in all cases: DTP human tumour cell line panel, 48 h
# 786-0 renal = test system: 786-0 renal
# A549 NSCLC = test system: A549 NSCLC
# ACHN renal = test system: ACHN renal
# BT-549 breast = test system: BT-549 breast
# CAKI-1 renal = test system: CAKI-1 renal
# COLO 205 colon = test system: COLO 205 colon
# DU-145 prostate = test system: DU-145 prostate
# EKVX NSCLC = test system: EKVX NSCLC
# HCC-2998 colon = test system: HCC-2998 colon
# HCT-116 colon = test system: HCT-116 colon
# HCT-15 colon = test system: HCT-15 colon
# HOP-62 NSCLC = test system: HOP-62 NSCLC
# HS 578T breast = test system: HS 578T breast
# HT29 colon = test system: HT29 colon
# IGROV1 ovarian = test system: IGROV1 ovarian
# K-562 leukemia = test system: K-562 leukemia
# KM12 colon = test system: KM12 colon
# LOX IMVI melanoma = test system: LOX IMVI melanoma
# M14 melanoma = test system: M14 melanoma
# MALME-3M melanoma = test system: MALME-3M melanoma
# MCF7 breast = test system: MCF7 breast
# MDA-MB-231 breast = test system: MDA-MB-231 breast
# MDA-MB-435 = test system: MDA-MB-435
# MDA-N = test system: MDA-N
# MOLT-4 leukemia = test system: MOLT-4 leukemia
# NCI-H226 lung = test system: NCI-H226 lung
# NCI-H23 lung = test system: NCI-H23 lung
# NCI-H460 lung = test system: NCI-H460 lung
# NCI-H522 lung = test system: NCI-H522 lung
# NCI/ADR-RES ovarian = test system: NCI/ADR-RES ovarian
# OVCAR-3 ovarian = test system: OVCAR-3 ovarian
# OVCAR-4 ovarian = test system: OVCAR-4 ovarian
# OVCAR-5 ovarian = test system: OVCAR-5 ovarian
# OVCAR-8 ovarian = test system: OVCAR-8 ovarian
# PC-3 prostate = test system: PC-3 prostate
# RPMI-8226 leukemia = test system: RPMI-8226 leukemia
# RXF 393 renal = test system: RXF 393 renal
# SF-268 CNS = test system: SF-268 CNS
# SF-295 CNS = test system: SF-295 CNS
# SF-539 CNS = test system: SF-539 CNS
# SK-MEL-2 melanoma = test system: SK-MEL-2 melanoma
# SK-MEL-28 melanoma = test system: SK-MEL-28 melanoma
# SK-MEL-5 melanoma = test system: SK-MEL-5 melanoma
# SK-OV-3 ovarian = test system: SK-OV-3 ovarian
# SN12C renal = test system: SN12C renal
# SNB-19 CNS = test system: SNB-19 CNS
# SNB-75 CNS = test system: SNB-75 CNS
# SR leukemia = test system: SR leukemia
# SW-620 colon = test system: SW-620 colon
# T-47D breast = test system: T-47D breast
# TK-10 renal = test system: TK-10 renal
# U251 CNS = test system: U251 CNS
# UACC-257 melanoma = test system: UACC-257 melanoma
# UACC-62 melanoma = test system: UACC-62 melanoma
# UO-31 renal = test system: UO-31 renal
# A498 renal = test system: A498 renal
# CCRF-CEM leukemia = test system: CCRF-CEM leukemia
# HL-60(TB) leukemia = test system: HL-60(TB) leukemia
# HOP-92 NSCLC = test system: HOP-92 NSCLC
smiles,measurement,setting,value
O=C1c2ccccc2-c2c1c1ccccc1c(=O)n2-c1cccnc1,TGI,786-0 renal,44.7 µM
same,TGI,A549 NSCLC,> 100 µM
same,TGI,ACHN renal,> 100 µM
same,TGI,BT-549 breast,> 100 µM
same,TGI,CAKI-1 renal,> 100 µM
same,TGI,COLO 205 colon,> 100 µM
same,TGI,DU-145 prostate,> 100 µM
same,TGI,EKVX NSCLC,> 100 µM
same,TGI,HCC-2998 colon,> 100 µM
same,TGI,HCT-116 colon,> 100 µM
same,TGI,HCT-15 colon,> 100 µM
same,TGI,HOP-62 NSCLC,41.8 µM
same,TGI,HS 578T breast,> 100 µM
same,TGI,HT29 colon,> 100 µM
same,TGI,IGROV1 ovarian,> 100 µM
same,TGI,K-562 leukemia,> 100 µM
same,TGI,KM12 colon,> 100 µM
same,TGI,LOX IMVI melanoma,> 100 µM
same,TGI,M14 melanoma,> 100 µM
same,TGI,MALME-3M melanoma,> 100 µM
same,TGI,MCF7 breast,> 100 µM
same,TGI,MDA-MB-231 breast,> 100 µM
same,TGI,MDA-MB-435,> 100 µM
same,TGI,MDA-N,> 100 µM
same,TGI,MOLT-4 leukemia,> 28.4 µM
same,TGI,NCI-H226 lung,> 100 µM
same,TGI,NCI-H23 lung,> 100 µM
same,TGI,NCI-H460 lung,> 100 µM
same,TGI,NCI-H522 lung,39.3 µM
same,TGI,NCI/ADR-RES ovarian,> 100 µM
same,TGI,OVCAR-3 ovarian,> 100 µM
same,TGI,OVCAR-4 ovarian,> 100 µM
same,TGI,OVCAR-5 ovarian,> 100 µM
same,TGI,OVCAR-8 ovarian,> 100 µM
same,TGI,PC-3 prostate,> 100 µM
same,TGI,RPMI-8226 leukemia,> 100 µM
same,TGI,RXF 393 renal,> 100 µM
same,TGI,SF-268 CNS,> 100 µM
same,TGI,SF-295 CNS,> 100 µM
same,TGI,SF-539 CNS,> 71.1 µM
same,TGI,SK-MEL-2 melanoma,> 100 µM
same,TGI,SK-MEL-28 melanoma,> 100 µM
same,TGI,SK-MEL-5 melanoma,> 100 µM
same,TGI,SK-OV-3 ovarian,> 100 µM
same,TGI,SN12C renal,> 100 µM
same,TGI,SNB-19 CNS,> 100 µM
same,TGI,SNB-75 CNS,> 100 µM
same,TGI,SR leukemia,> 100 µM
same,TGI,SW-620 colon,> 100 µM
same,TGI,T-47D breast,> 100 µM
same,TGI,TK-10 renal,> 100 µM
same,TGI,U251 CNS,> 100 µM
same,TGI,UACC-257 melanoma,> 100 µM
same,TGI,UACC-62 melanoma,> 85.8 µM
same,TGI,UO-31 renal,> 100 µM
COC1(OC)C[C@H](C)[C@@]23O[C@]24C2=CC(=O)C=CC2=N[C@H]3C#C/C=C\C#C[C@]14O,TGI,786-0 renal,0.574 µM
same,TGI,A498 renal,2.11 µM
same,TGI,A549 NSCLC,1.78 µM
same,TGI,ACHN renal,0.965 µM
same,TGI,BT-549 breast,2.2 µM
same,TGI,CAKI-1 renal,1.4 µM
same,TGI,CCRF-CEM leukemia,0.811 µM
same,TGI,COLO 205 colon,2.14 µM
same,TGI,DU-145 prostate,2.24 µM
same,TGI,EKVX NSCLC,2.21 µM
same,TGI,HCC-2998 colon,2.13 µM
same,TGI,HCT-116 colon,1.35 µM
same,TGI,HL-60(TB) leukemia,0.318 µM
same,TGI,HOP-62 NSCLC,2.25 µM
same,TGI,HOP-92 NSCLC,1.8 µM
same,TGI,HS 578T breast,5.09 µM
same,TGI,HT29 colon,1.25 µM
same,TGI,IGROV1 ovarian,2.37 µM
same,TGI,KM12 colon,1.88 µM
same,TGI,M14 melanoma,1.82 µM
same,TGI,MALME-3M melanoma,2.1 µM
same,TGI,MCF7 breast,1.4 µM
same,TGI,MDA-MB-231 breast,2.06 µM
same,TGI,MDA-MB-435,1.7 µM
same,TGI,MDA-N,2.28 µM
same,TGI,MOLT-4 leukemia,0.106 µM
same,TGI,NCI-H226 lung,2.6 µM
same,TGI,NCI-H23 lung,2.05 µM
same,TGI,NCI-H460 lung,1.42 µM
same,TGI,NCI/ADR-RES ovarian,36.1 µM
same,TGI,OVCAR-3 ovarian,1.93 µM
same,TGI,OVCAR-4 ovarian,1.74 µM
same,TGI,OVCAR-5 ovarian,1.8 µM
same,TGI,PC-3 prostate,2.09 µM
same,TGI,RPMI-8226 leukemia,0.56 µM
same,TGI,RXF 393 renal,2.49 µM
same,TGI,SF-268 CNS,12.2 µM
same,TGI,SF-295 CNS,6.65 µM
same,TGI,SF-539 CNS,1.93 µM
same,TGI,SK-MEL-2 melanoma,3.58 µM
same,TGI,SK-MEL-28 melanoma,2.51 µM
same,TGI,SK-MEL-5 melanoma,1.56 µM
same,TGI,SK-OV-3 ovarian,2.89 µM
same,TGI,SNB-19 CNS,3.02 µM
same,TGI,SNB-75 CNS,1.58 µM
same,TGI,SR leukemia,0.4 µM
same,TGI,SW-620 colon,3.42 µM
same,TGI,T-47D breast,2.56 µM
same,TGI,TK-10 renal,2.1 µM
same,TGI,U251 CNS,1.82 µM
same,TGI,UACC-257 melanoma,5.16 µM
same,TGI,UACC-62 melanoma,2.93 µM
same,TGI,UO-31 renal,1.76 µM
COC(=O)CNC(=O)c1cc(C)cc2c1Oc1c(cc(C)cc1C(=O)NCC(=O)OC)S2,TGI,786-0 renal,> 100 µM
same,TGI,A549 NSCLC,> 100 µM
same,TGI,ACHN renal,58.4 µM
same,TGI,BT-549 breast,> 100 µM
same,TGI,CAKI-1 renal,> 100 µM
same,TGI,CCRF-CEM leukemia,> 100 µM
same,TGI,COLO 205 colon,70.9 µM
same,TGI,DU-145 prostate,> 100 µM
same,TGI,EKVX NSCLC,> 100 µM
same,TGI,HCC-2998 colon,> 100 µM
same,TGI,HCT-116 colon,> 100 µM
same,TGI,HCT-15 colon,> 100 µM
same,TGI,HOP-62 NSCLC,> 100 µM
same,TGI,HOP-92 NSCLC,57.2 µM
same,TGI,HS 578T breast,> 100 µM
same,TGI,HT29 colon,> 100 µM
same,TGI,IGROV1 ovarian,> 100 µM
same,TGI,K-562 leukemia,> 100 µM
same,TGI,KM12 colon,> 100 µM
same,TGI,LOX IMVI melanoma,> 100 µM
same,TGI,M14 melanoma,> 100 µM
same,TGI,MALME-3M melanoma,40.7 µM
same,TGI,MCF7 breast,> 100 µM
same,TGI,MDA-MB-231 breast,> 100 µM
same,TGI,MDA-MB-435,> 100 µM
same,TGI,MDA-N,> 100 µM
same,TGI,MOLT-4 leukemia,> 100 µM
same,TGI,NCI-H226 lung,> 100 µM
same,TGI,NCI-H23 lung,> 100 µM
same,TGI,NCI-H522 lung,> 100 µM
same,TGI,NCI/ADR-RES ovarian,> 100 µM
same,TGI,OVCAR-3 ovarian,> 100 µM
same,TGI,OVCAR-4 ovarian,> 100 µM
same,TGI,OVCAR-5 ovarian,> 100 µM
same,TGI,OVCAR-8 ovarian,> 100 µM
same,TGI,PC-3 prostate,> 100 µM
same,TGI,RPMI-8226 leukemia,> 100 µM
same,TGI,RXF 393 renal,69.4 µM
same,TGI,SF-268 CNS,> 100 µM
same,TGI,SF-295 CNS,> 100 µM
same,TGI,SF-539 CNS,43.7 µM
same,TGI,SK-MEL-2 melanoma,> 100 µM
same,TGI,SK-MEL-28 melanoma,> 100 µM
same,TGI,SK-OV-3 ovarian,> 100 µM
same,TGI,SN12C renal,> 100 µM
same,TGI,SNB-19 CNS,> 100 µM
same,TGI,SNB-75 CNS,> 100 µM
same,TGI,SR leukemia,> 100 µM
same,TGI,SW-620 colon,> 100 µM
same,TGI,T-47D breast,> 100 µM
same,TGI,TK-10 renal,> 100 µM
same,TGI,U251 CNS,> 100 µM
same,TGI,UACC-257 melanoma,> 100 µM
same,TGI,UACC-62 melanoma,> 100 µM
